Data taken from paper PMC5382172 (Frontiers in Molecular Neuroscience, 2017).
Where “and” joins values, the source holds several entries; their conditions need not be identical. Equal entries are not always repeated.

Tests used:
Format in all cases: cell-based
GluClαF276A/βWT receptor = target: T1, GluClαF276A/βWT receptor (Caenorhabditis elegans, UniProt G5EBR3+Q17328, F276A); test: Whole-cell patch clamp in CHO cells, GluClαF276A/βWT receptor
T1 construct: entry codes of the full-length subunits used in this study; expressed in transfected cells; host or cells: CHO cells, transient co-transfection, pcDNA3.1 (X-tremeGENE HP for the IVM-EC50 experiments)
Procedure: (§1) Chinese hamster ovary (CHO) cells were cultured as previously (Bar-Lev et al., [2011]) in Dulbecco’s Modified Eagle Medium (DMEM) containing 10% fetal calf serum, 2 mM glutamax, 100 Units/ml penicillin G and 100 μg/ml streptomycin, and grown in 5% CO2 at 37°C under 90%–95% humidity. The cells were seeded on glass coverslips (13-mm diameter) placed in a 24-multiwell plate. […] For the expression of GluCl receptors, cells were transiently co-transfected with pcDNA3.1 plasmids containing the ORFs of interest using transit-LT1 transfection reagent (Mirus, Madison, WI, USA), according to the manufacturer’s protocol. The cDNAs encoding the C. elegans GluClα (GLC-1) or its mutated versions and the GluClβ (GLC-2) subunits (200–600 ng per well) were used at 1:1 ratio. The pIRES-CD8 plasmid (200 ng per well) was added to enable the visualization of the expressing cells by beads coated with anti-CD8 antibodies (Invitrogen). For high-level expression of the GluClαF276A/βWT mutant receptor in experiments assigned to determine its IVM-EC50, we used the X-tremeGENE HP DNA Transfection Reagent (Roche Life Science). Recordings were performed 72–96 h following the transfection.
Whole-cell patch clamp recordings were performed as described previously (Bar-Lev et al., [2011]) in CHO cells that were prepared as detailed above. The normal external solution (NES) contained (in millimolar): 140 NaCl, 2.8 KCl, 2 CaCl2, 2 MgCl2, 10 glucose and 10 HEPES, adjusted to pH 7.35 with NaOH (310 mOsm/L). The pipette solution contained (in millimolar): 130 KCl, 4 MgCl2, 4 Na2ATP, 1 EGTA and 10 HEPES, adjusted to pH 7.35 with KOH (290 mOsm/L). The osmolarity of these solutions was maintained by adding sucrose. The electrode resistance was 6–10 MΩ when filled with the pipette solution. External solutions were applied onto the cell by using the VC-77SP fast-step system (Warner Instruments, Hamden, CT, USA) combined with N2 pressure of 3–4 psi to produce laminar flow of the external solution onto the patched cell. All measurements were performed at room temperature. The currents were measured with an Axopatch 200B patch-clamp amplifier (Molecular Devices, Sunnyvale, CA, USA) and a Digidata 1440A interface (Molecular Devices). Acquisition of recording data was performed at 2.5 kHz and recordings were low-pass filtered at 1 kHz, through a four-pole Bessel filter. The pClamp 10 software (Molecular Devices) was used for data acquisition. […] Five-hundred milliseconds after the application started (which is also after the current reached to its peak at −60 mV), the voltage was stepped from −60 mV to −80 mV for 50 ms followed by a 250-ms-long voltage ramp ranging from −80 mV to +80 mV.
Dose-response curves were fitted to the data points by a nonlinear regression using the Hill Equation 1,

[1] = target: T2, GluClα[SSS→GSD]/βWT receptor (Caenorhabditis elegans, UniProt G5EBR3+Q17328, S236G/S238D); test: Whole-cell patch clamp in CHO cells, GluClα[SSS→GSD]/βWT receptor; conditions: 500 nM IVM, -60 mV
T2 construct: entry codes of the full-length subunits used in this study; expressed in transfected cells; host or cells: CHO cells, transient co-transfection 1:1, pcDNA3.1
Procedure: as §1, with “For high-level expression of the GluClαF276A/βWT mutant receptor in experiments assigned to determine its IVM-EC50, we used the X-tremeGENE HP DNA Transfection Reagent (Roche Life Science). Recordings were performed 72–96 h following the transfection.” left out
(§2) Whole-cell patch clamp recordings were performed as described previously (Bar-Lev et al., [2011]) in CHO cells that were prepared as detailed above. […] The currents were measured with an Axopatch 200B patch-clamp amplifier (Molecular Devices, Sunnyvale, CA, USA) and a Digidata 1440A interface (Molecular Devices). […]

[2] = target: T3, GluClβWT (GLC-2) homomeric receptor (Caenorhabditis elegans, UniProt Q17328); test: Whole-cell patch clamp in CHO cells transfected with GluClβWT subunit alone; conditions: βWT alone, 500 nM IVM, -60 mV
T3 construct: entry codes of the full-length subunits used in this study; expressed in transfected cells; host or cells: CHO cells, transient transfection, pcDNA3.1
T3 sequence (Q17328 23-434): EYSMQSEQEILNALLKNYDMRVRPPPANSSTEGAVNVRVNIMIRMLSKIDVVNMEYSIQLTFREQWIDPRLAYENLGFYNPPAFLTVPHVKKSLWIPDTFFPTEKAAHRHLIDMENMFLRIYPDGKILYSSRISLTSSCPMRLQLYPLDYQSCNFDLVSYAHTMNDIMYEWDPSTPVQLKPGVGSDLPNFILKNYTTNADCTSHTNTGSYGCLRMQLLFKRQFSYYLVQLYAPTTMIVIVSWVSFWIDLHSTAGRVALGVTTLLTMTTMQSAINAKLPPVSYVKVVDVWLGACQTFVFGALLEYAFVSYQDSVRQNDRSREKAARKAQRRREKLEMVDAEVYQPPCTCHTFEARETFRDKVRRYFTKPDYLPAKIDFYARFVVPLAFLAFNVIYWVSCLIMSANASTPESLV
Procedure: as §1, with “For high-level expression of the GluClαF276A/βWT mutant receptor in experiments assigned to determine its IVM-EC50, we used the X-tremeGENE HP DNA Transfection Reagent (Roche Life Science). Recordings were performed 72–96 h following the transfection.” left out
as §2

GluClαP192Y/βWT receptor = target: T4, GluClαP192Y/βWT receptor (Caenorhabditis elegans, UniProt G5EBR3+Q17328, P192Y); test: Whole-cell patch clamp in CHO cells, GluClαP192Y/βWT receptor; conditions: 500 nM IVM, -60 mV
T4 construct: entry codes of the full-length subunits used in this study; expressed in transfected cells; host or cells: CHO cells, transient co-transfection 1:1, pcDNA3.1
Procedure: as §1, with “For high-level expression of the GluClαF276A/βWT mutant receptor in experiments assigned to determine its IVM-EC50, we used the X-tremeGENE HP DNA Transfection Reagent (Roche Life Science). Recordings were performed 72–96 h following the transfection.” left out
as §2

T1 sequence (G5EBR3 21-461 F276A, one chain of several): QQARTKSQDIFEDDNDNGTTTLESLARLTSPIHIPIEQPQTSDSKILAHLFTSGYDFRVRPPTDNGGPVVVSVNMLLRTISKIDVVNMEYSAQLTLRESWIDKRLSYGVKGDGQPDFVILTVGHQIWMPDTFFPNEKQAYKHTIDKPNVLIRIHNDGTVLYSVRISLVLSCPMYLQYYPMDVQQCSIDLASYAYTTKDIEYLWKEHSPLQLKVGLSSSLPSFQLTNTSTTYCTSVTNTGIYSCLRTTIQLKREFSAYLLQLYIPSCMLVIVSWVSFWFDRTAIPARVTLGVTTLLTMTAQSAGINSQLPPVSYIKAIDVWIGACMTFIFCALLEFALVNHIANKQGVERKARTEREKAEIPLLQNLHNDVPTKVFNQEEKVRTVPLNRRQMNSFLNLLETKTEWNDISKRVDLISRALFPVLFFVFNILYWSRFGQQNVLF
T4 sequence (G5EBR3 21-461 P192Y, one chain of several): as the sequence (G5EBR3 21-461 F276A, one chain of several) above, with P172Y, A256F counted along it
T2 sequence (G5EBR3 21-461 S236G/S238D, one chain of several): as the sequence (G5EBR3 21-461 F276A, one chain of several) above, with S216G, S218D, A256F counted along it

For `CC[C@H](C)[C@H]1O[C@]2(CC[C@@H]1C)C[C@@H]1C[C@@H](C/C=C(\C)[C@@H](O[C@H]3C[C@H](OC)[C@@H](O[C@H]4C[C@H](OC)[C@@H](O)[C@H](C)O4)[C@H](C)O3)[C@@H](C)/C=C/C=C3\CO[C@@H]4[C@H](O)C(C)=C[C@@H](C(=O)O1)[C@]34O)O2` [IVM, ivermectin], the “increase in IVM-EC50 relative to GluClαWT/βWT” value (GluClαF276A/βWT receptor) was 20 fold, the “Fold decrease in Glu-EC50 observed after pre-exposure to IVM” value (GluClαF276A/βWT receptor; 50 nM IVM) was ~ 8.5 fold and the “magnitude of the IVM-elicited current” value (GluClαF276A/βWT receptor; 50 nM IVM, -60 mV, just before the second application of Glu) was 70 pA. For the same molecule, the “decrease of IVM/Glu response ratio compared to GluClαWT/βWT” value (GluClαF276A/βWT receptor; 500 nM IVM (-60 mV) over Glu-EC50 concentration (+60 mV) peak currents) was ~ 7 fold, the “fold-potentiation of Glu-elicited response by IVM” value (GluClαF276A/βWT receptor; 1 mM Glu before and after exposure to 50 nM IVM) was ~ 18 fold and 17.9 ± 1.8 fold and the “IVM (500 nM) Amplitude” value (GluClαF276A/βWT receptor; CHO cells, 500 nM IVM, -60 mV) was 0.2 ± 0.03 nA. The “Hill coefficient of activation by IVM” value (GluClαF276A/βWT receptor; cumulative IVM concentrations, -60 mV) was 3.5 and 3.5 ± 0.40, the EC50 (GluClαF276A/βWT receptor; cumulative IVM concentrations, -60 mV, high-level expression (X-tremeGENE HP)) was 802 nM and the “IVM (500 nM) Amplitude” value [1] was 1.8 ± 0.4 nA. For the same molecule, the “IVM (500 nM) Amplitude” value [2] was 0.0 ± 0.0 (10) nA and the “IVM (500 nM) Amplitude” value (GluClαP192Y/βWT receptor) was 1.2 ± 0.2 nA.
